# Test results published in EPA's ToxRefDB 2.
# Columns and labels:
# [1] = tested on: rat; conditions: Subchronic oral toxicity in rodents, other, Feed, dose end: 13 week, group: systemic
# [2] = tested on: rat; conditions: Multigenerational reproductive toxicity study, Sprague Dawley, Oral, Feed, dose end: 2 generation
# [3] = tested on: dog; conditions: Combined chronic toxicity/carcinogenicity, beagle, Oral, Feed, dose end: 24 month, group: systemic
# [4] = tested on: rat; conditions: Combined chronic toxicity/carcinogenicity, sprague dawley, Oral, Feed, dose end: 2 year, group: systemic
# [5] = tested on: rat; conditions: Carcinogenicity, fischer, Oral, Feed, dose end: 104 week, group: systemic
# [6] = tested on: mouse; conditions: Carcinogenicity, b6c3f1, Oral, Feed, dose end: 104 week, group: systemic
# [7] = tested on: rat; conditions: Carcinogenicity, fischer, Oral, Feed, dose end: 80 week, group: systemic
# [8] = tested on: mouse; conditions: Carcinogenicity; b6c3f1; Oral; Feed; dose end: 80 week; group: systemic; systemic / pathology microscopic / liver / carcinoma + systemic / pathology microscopic / liver / neoplastic nodule + systemic / in life …
# [9] = tested on: rabbit; conditions: Prenatal developmental toxicity study, new zealand white, Inhalation, Whole-Body, dose end: 18 GD, group: maternal
# [10] = tested on: rat; conditions: Prenatal developmental toxicity study, sprague dawley, Inhalation, Whole-Body, dose end: 15 GD, group: maternal
# [11] = tested on: rat; conditions: Subchronic inhalation toxicity, fischer, Whole-Body, dose end: 13 week, group: systemic
# [12] = systemic / in life observation / body weight / body weight gain
# [13] = group: offspring, systemic / in life observation / body weight / offspring (pup) weight + developmental / offspring survival late / [other] / [other] + …
# [14] = group: parental, systemic / in life observation / body weight / body weight + systemic / organ weight / adrenal gland / absolute
# [15] = systemic / pathology microscopic / kidney / cellular alteration + systemic / pathology microscopic / kidney / pigmentation
# [16] = systemic / pathology microscopic / kidney / cellular alteration + systemic / pathology microscopic / kidney / pigmentation + systemic / …
# [17] = systemic / in life observation / body weight / body weight + systemic / pathology microscopic / urinary bladder / hyperplasia
# [18] = systemic / in life observation / body weight / body weight + systemic / pathology microscopic / urinary bladder / hyperplasia + systemic / …
# [19] = systemic / in life observation / body weight / body weight
# [20] = systemic / in life observation / body weight / body weight + systemic / pathology microscopic / liver / hepatocellular carcinoma + systemic…
# [21] = systemic / in life observation / body weight / body weight + systemic / pathology microscopic / thyroid gland / hyperplasia
# [22] = systemic / in life observation / body weight / body weight + systemic / pathology microscopic / thyroid gland / hyperplasia + systemic / in …
# [23] = systemic / in life observation / body weight / body weight gain + systemic / in life observation / clinical signs / oral discharge + …
# [24] = systemic / in life observation / food consumption / food consumption
# [25] = systemic / in life observation / body weight / body weight gain + systemic / in life observation / clinical signs / red or crusty deposits …
# [26] = systemic / organ weight / adrenal gland / absolute + systemic / organ weight / adrenal gland / relative to body weight + systemic / organ …
smiles,measurement,setting,value
CNC(=O)ON=C(C)SC [Methomyl],NEL,[1]; [12],2.5 mg/kg/day
same,NOAEL,[1]; [12],2.5 mg/kg/day
same,LOAEL,[1]; systemic / in life observation / body weight / body weight gain + systemic / pathology microscopic / bone marrow / hyperplasia,12.5 mg/kg/day
same,LEL,[1]; systemic / in life observation / body weight / body weight gain + systemic / pathology microscopic / bone marrow / hyperplasia + systemic / …,12.5 mg/kg/day
same,LOAEL,"[2]; group: offspring, systemic / in life observation / body weight / offspring (pup) weight + developmental / offspring survival late / [other] / [other]",56.5 mg/kg/day
same,LEL,[2]; [13],6.9 mg/kg/day
same,NEL,[2]; [13],< 6.9 mg/kg/day
same,NOAEL,"[2]; group: offspring, systemic / in life observation / body weight / offspring (pup) weight + developmental / offspring survival late / lactation index / …",6.9 mg/kg/day
same,LOAEL,"[2]; group: parental, systemic / in life observation / body weight / body weight + systemic / in life observation / food consumption / food consumption",36.9 mg/kg/day
same,NOAEL,"[2]; group: parental, systemic / in life observation / body weight / body weight + systemic / in life observation / food consumption / food consumption + systemic…",4.6 mg/kg/day
same,LEL,[2]; [14],6.9 mg/kg/day
same,NEL,[2]; [14],< 6.9 mg/kg/day
same,LEL,[3]; [15],10 mg/kg/day
same,LOAEL,[3]; [15],10 mg/kg/day
same,NEL,[3]; [16],2.5 mg/kg/day
same,NOAEL,[3]; [16],2.5 mg/kg/day
same,NEL,[4]; systemic / hematology / erythrocyte (rbc) count differential / erythrocyte (rbc) + systemic / hematology / hematocrit (hct) / hematocrit (…,5 mg/kg/day
same,LOAEL,[4]; [12],20 mg/kg/day
same,NOAEL,[4]; [12],5 mg/kg/day
same,LEL,[4]; systemic / in life observation / body weight / body weight gain + systemic / hematology / erythrocyte (rbc) count differential / erythrocyte…,20 mg/kg/day
COc1ccc(C)cc1N [2-Methoxy-5-methylaniline],LOAEL,[5]; [17],250 mg/kg/day
same,NOAEL,[5]; [17],< 250 mg/kg/day
same,LEL,[5]; [18],250 mg/kg/day
same,NEL,[5]; [18],< 250 mg/kg/day
same,LOAEL,[6]; [19],330 mg/kg/day
same,NOAEL,[6]; [19],< 330 mg/kg/day
same,LEL,[6]; [20],330 mg/kg/day
same,NEL,[6]; [20],< 330 mg/kg/day
COP(=O)(OC)O/C(=C/Cl)c1cc(Cl)c(Cl)cc1Cl [Tetrachlorovinphos],LOAEL,[7]; [21],212 mg/kg/day
same,NOAEL,[7]; [21],< 212 mg/kg/day
same,LEL,[7]; [22],212 mg/kg/day
same,NEL,[7]; [22],< 212 mg/kg/day
same,LEL,[8],1200 mg/kg/day
same,LOAEL,[8],> 2400 mg/kg/day
same,NEL,[8],< 1200 mg/kg/day
same,NOAEL,[8],≥ 2400 mg/kg/day
CC(C)c1ccccc1 [Cumene],LOAEL,[9]; [23],> 2300 ppm
same,NOAEL,[9]; [23],≥ 2300 ppm
same,LEL,[9]; [24],500 ppm
same,NEL,[9]; [24],< 500 ppm
same,LOAEL,[10]; [25],> 1200 ppm
same,NEL,[10]; [25],100 ppm
same,NOAEL,[10]; [25],≥ 1200 ppm
same,LEL,[10]; [24],500 ppm
same,NEL,[11]; systemic / in life observation / clinical signs / body temperature + systemic / in life observation / clinical signs / motor activity,100 ppm
same,LEL,[11]; systemic / in life observation / clinical signs / motor activity + systemic / clinical chemistry / glucose / glucose + systemic / hematology…,500 ppm
same,LOAEL,[11]; [26],> 1200 ppm
same,NOAEL,[11]; [26],≥ 1200 ppm
